Experimental data: patent US20160150766A1, “ADVANCING GENETIC GAIN IN BOVINE” (priority 2013, published 2016)

System: prepubescent calves
Experiment: Laparoscopic oocyte retrieval from superstimulated prepubescent calves
Type: in vivo, bovine
Conditions: calves 3.5-6 months of age, superstimulated: progesterone CIDR, FSH s.c. at 12-hour intervals (20/15/10 mg/dose), 50 mg LH i.v.; aspiration 23 hours after LH
Experimental: Laparoscopic oocyte retrieval in prepubescent calves younger than six months of age provides an avenue of shortening the generation interval, thus increasing the rate of genetic gain. […] Three laparoscopic oocyte retrievals were performed on each calf, and the oocytes collected were fertilized in vitro and cultured to the blastocyst stage of development. Resulting embryos were transferred fresh into synchronized recipients, and pregnancies were carried out to Day 60. On average, nine oocytes were retrieved per aspiration when the calves were superstimulated. An average of six oocytes were retrieved from calves that had no FSH treatment.
Calves 3.5-6 months of age were used as egg donors. Initially a progesterone releasing device designed for sheep (Eazi Breed CIDR, Zoetis, USA) containing 0.3 g progesterone was inserted into the vagina of each calf and remained there for 12 days. The device was then removed for six days. A new CIDR was inserted and left for 12 days.
Superstimulation started nine days after insertion of the CIDR with the injection of […] follicle stimulating hormone (FSH) s.c. at 12-hour intervals, starting with two doses of 20 mg/dose, then two doses of 15 mg/dose, and finally two doses of 10 mg by the last injections. The CIDR was removed at the time of the final FSH injection and 50 mg of LH administered i.v. 2.5 days after removal of the CIDR. […]

Substance: follicle stimulating hormone [FSH]
- oocytes retrieved per aspiration (average): nine
